Data on five compounds can be found in US20240376151A1, “STAPLED PEPTIDES AND METHODS THEREOF” (FOG PHARMACEUTICALS, INC., priority 2022, published 2024).

SMILES strings stand for the structures.

Data set [1] concerns Expi293 cells. The data set can be described thus: Measurement of the Cell Association of Helicons (mass spectrometry quantification in cells after treatment and wash). The class given is cell-based. As to conditions: percentage of Helicons in cells after treatment and wash, 22 hours, n = 2, mean ± SD. The procedure:
All samples were analyzed using mass spectrometry.

Data set [2] has as its system Expi293 cells. The data set can be described thus: CellTiter-Glo cell health (ATP levels) during cell association assay. The class given is cell-based. As to conditions: reflective of cell health, luminescence Tfinal (22 hours) / Tinitial. (Cellular ATP, detected with luciferase, serves as a proxy for viable cell number.)

For the compound `CC[C@H](C)[C@H](NC(=O)[C@H](Cc1ccc(O)cc1)NC(=O)[C@H](CCC(N)=O)NC(=O)[C@]1(C)CCCC=CCCCCCC[C@@](C)(NC(=O)[C@H](Cc2c[nH]cn2)NC(=O)[C@@H](NC(=O)[C@@H](NC(C)=O)[C@@H](C)CC)[C@@H](C)CC)C(=O)N[C@@H](Cc2ccc(O)cc2)C(=O)N[C@@H](CCC(=O)O)C(=O)N[C@@H](C)C(=O)N[C@@H](C)C(=O)N[C@@H](Cc2ccccc2)C(=O)N[C@@H](Cc2ccccc2)C(=O)N1)C(N)=O` (single isomer, unassigned) [FP08011, Ac-Ile-Ile-His-R8-Tyr-Glu-Ala-Ala-Phe-Phe-S5-Gln-Tyr-Ile-NH2], in the data set with Expi293 cells [1], the “Helicon in cells ± SD (%)” value is given as 6.5 ± 0.5%. Also, the “CellTiter-Glo fold change ± SD” value in the data set on Expi293 cells [2] is reported as 1.2 ± 0.01.

In the case of `CCCC[C@H](NC(=O)[C@@H](NC(C)=O)C(C)C)C(=O)N[C@@H](CCC(N)=O)C(=O)N[C@]1(C)CCCCCCC=CCCC[C@@](C)(C(=O)N[C@@H](Cc2c[nH]cn2)C(=O)N[C@@H](Cc2ccc(O)cc2)C(=O)N[C@H](C(N)=O)C(C)C)NC(=O)[C@H]([C@@H](C)CC)NC(=O)[C@H](Cc2ccccc2)NC(=O)[C@H](C)NC(=O)[C@H](C)NC(=O)[C@H](CCC(N)=O)NC(=O)[C@H](Cc2ccc(O)cc2)NC1=O` (single isomer, unassigned) [FP07871, Ac-Val-nLeu-Gln-R8-Tyr-Gln-Ala-Ala-Phe-Ile-S5-His-Tyr-Val-NH2], the “Helicon in cells ± SD (%)” value in the data set with Expi293 cells [1] came to 7.0 ± 0.3%. Moreover, the “CellTiter-Glo fold change ± SD” value in the data set on Expi293 cells [2] is reported as 1.2 ± 0.03.

For the compound `CCCC[C@H](NC(=O)[C@@H](NC(C)=O)C(C)C)C(=O)N[C@@H](CCC(N)=O)C(=O)N[C@]1(C)CCCCCCC=CCCC[C@@](C)(C(=O)N[C@@H](Cc2c[nH]cn2)C(=O)N[C@@H](Cc2ccc(O)cc2)C(=O)N[C@H](C(N)=O)C(C)C)NC(=O)[C@H]([C@@H](C)CC)NC(=O)[C@H](Cc2ccccc2)NC(=O)[C@H](C)NC(=O)[C@H](C)NC(=O)[C@H](CCC(N)=O)NC(=O)[C@H](Cc2ccc(O)cc2)NC1=O` (single isomer, unassigned) [FP07872, Ac-Val-nLeu-Gln-R8-Tyr-Gln-Ala-Ala-Phe-Ile-S5-His-Tyr-Val-NH2], the “Helicon in cells ± SD (%)” value in the data set on Expi293 cells [1] worked out at 11.7 ± 1.6%. For the same compound, in the data set with Expi293 cells [2], the “CellTiter-Glo fold change ± SD” value is on record as 1.1 ± 0.02.

On to `CC[C@H](C)[C@H](NC(C)=O)C(=O)N[C@@H](CC(C)C)C(=O)N[C@@H](CCC(N)=O)C(=O)N[C@]1(C)CCCCCCC=CCCC[C@@](C)(C(=O)N[C@@H](Cc2c[nH]cn2)C(=O)N[C@@H](Cc2ccc(O)cc2)C(=O)N[C@@H](CCC(N)=O)C(N)=O)NC(=O)[C@H](CO)NC(=O)[C@H](Cc2ccccc2)NC(=O)[C@H](C)NC(=O)[C@H](C)NC(=O)[C@H](CCC(=O)O)NC(=O)[C@H](Cc2ccc(O)cc2)NC1=O` (single isomer, unassigned) [FP07860, Ac-Ile-Leu-Gln-R8-Tyr-Glu-Ala-Ala-Phe-Ser-S5-His-Tyr-Gln-NH2], for which the “Helicon in cells ± SD (%)” value with Expi293 cells [1] was determined as 0.3 ± 0.0%. For the same compound, the “CellTiter-Glo fold change ± SD” value in the data set on Expi293 cells [2] was 1.2 ± 0.03.

`CC[C@H](C)[C@H](NC(C)=O)C(=O)N[C@@H](CC(C)C)C(=O)N[C@@H](CCC(N)=O)C(=O)N[C@]1(C)CCCCCCC=CCCC[C@@](C)(C(=O)N[C@@H](Cc2c[nH]cn2)C(=O)N[C@@H](Cc2ccc(O)cc2)C(=O)N[C@@H](CCC(N)=O)C(N)=O)NC(=O)[C@H](CO)NC(=O)[C@H](Cc2ccccc2)NC(=O)[C@H](C)NC(=O)[C@H](C)NC(=O)[C@H](CCC(=O)O)NC(=O)[C@H](Cc2ccc(O)cc2)NC1=O` (single isomer, unassigned) [FP07859, Ac-Ile-Leu-Gln-R8-Tyr-Glu-Ala-Ala-Phe-Ser-S5-His-Tyr-Gln-NH2]: the “Helicon in cells ± SD (%)” value in the data set with Expi293 cells [1] is recorded as 0.1 ± 0.0%. Besides, the “CellTiter-Glo fold change ± SD” value in the data set with Expi293 cells [2] was 1.2 ± 0.02.
